Source: patent US6576464B2, “Methods for providing differentiated stem cells” (Geron Corporation, priority 2000, dated 2003)

Legend:
hTERT = hTERT expression by RT-PCR after exposure to differentiation factors; assay type: cell-based, human; conditions: after exposure of hES cells to the factor
Procedure: For radioactive relative quantification of individual gene products, QuantumRNA™ Alternate18S Internal Standard primers (Ambion, Austin Tex., USA) were employed according to the manufacturer's instructions. Briefly, the linear range of amplification of a particular primer pair was determined, then coamplified with the appropriate mixture of alternare18S primers:competimers to yield PCR products with coinciding linear ranges. Before addition of AmpliTaq™ (Roche) to PCR reactions, the enzyme was pre-incubated with the TaqStart™ antibody (ProMega) according to manufacturer's instructions. Radioactive PCR reactions were analyzed on 5% non-denaturing polyacrylamide gels, dried, and exposed to phosphoimage screens (Molecular Dynamics) for 1 hour. Screens were scanned with a Molecular Dynamics Storm 860 and band intensities were quantified using ImageQuant™ software. Results are expressed as the ratio of radioactivity incorporated into the hTERT or OCT-4 band, standardized to the radioactivity incorporated into the 18s band.
Primers and amplification conditions for particular markers are as follows.

[1] = system: tumor lines 143B, 293, HT1080, Bxpc-3', DAOY and NIH3T3; assay: Ganciclovir treatment in vitro of tk+ tumor lines carrying hTERT promoter/tk constructs; assay type: cell-based; conditions: tk/+ stable clones or mass populations with pGRN266, pGRN267, pGRN268
Procedure: (§1) The ability of the hTERT promoter to specifically drive the expression of the thymidine kinase (tk) gene in tumor cells was tested using a variety of constructs: One construct, designated pGRN266, contains an EcoRI-FseI PCR fragment with the tk gene cloned into the EcoRI-FseI sites of pGRN263. pGRN263, containing approximately 2.5 kb of hTERT promoter sequence, is similar to pGRN150, but contains a neomycin gene as selection marker. pGRN267 contains an EcoRI-FseI PCR fragment with the tk gene cloned into the EcoRI-FseI sites of pGRN264. pGRN264, containing approximately 210 bp of hTERT promoter sequence, is similar to pGRN176, but contains a neomycin gene as selection marker. pGRN268 contains an EcoRI-XbaI PCR fragment with the tk gene cloned into the EcoRI-XbaI (unmethylated) sites of pGRN265. pGRN265, containing approximately 90 bp of hTERT promoter sequence, is similar to pGRN175, but contains a neomycin gene as selection marker.
(§2) These hTERT promoter/tk constructs, pGRN266, pGRN267 and pGRN268, were reintroduced into mammalian cells and tk/+stable clones (and/or mass populations) were selected. […] Ganciclovir treatment had no effect on normal BJ cells.

[2] = system: Undifferentiated hES lines H1 and H7; assay: Comparison of hES lines: total cell number after pGRN376 and GCV; assay type: cell-based, human; conditions: mock-transduced cells
Procedure: Undifferentiated hES of lines designated H1 and H7 cells were plated into 24 well plates (1 confluent well of a 6 well plate split into 24 wells of a 24 well plate). […] Four h after addition of the viral vector, medium was exchanged for new mEF-CM; some wells received medium supplemented with 20 AM GCV. Cells exposed to GCV were re-fed with mEF-CM containing GCV daily for 3 days. On day 4 after the initiation of GCV treatment, wells were harvested and analyzed by flow cytometry to assess changes in total cell number.

normal BJ cells = assay: Ganciclovir treatment in vitro of normal cells carrying hTERT promoter/tk constructs; assay type: cell-based
Procedure: as §1, §2

[3] = system: Undifferentiated H1 hES cells; assay: Titration of GCV in TPAC vector treated hES cells; assay type: cell-based, human; conditions: hES cells transduced with pGRN376 at MOI 30; 5, 10, 20, 30, 40 μM tested; day 2
Procedure: Undifferentiated H1 cells were plated into 24 well plates (1 confluent well of a 6 well plate split into 24 wells of a 24 well plate). After 48 h, some wells were infected with pGRN376 at an MOI of 30. Four h after addition of the viral vector, medium was exchanged for new mEF-CM; some wells received medium supplemented with 5, 10, 20, 30, or 40 μM ganciclovir (GCV). Cells exposed to GCV were re-fed with MEF-CM containing GCV daily for 2 days. On day 2 after the initiation of GCV treatment, wells were harvested and analyzed by flow cytometry to assess changes in total cell number, and cell viability (measured by PI exclusion).

H9 hES cell line clones = assay: Ganciclovir sensitivity screen of stable GRN376mod-transfected hES clones; assay type: cell-based, human; conditions: ten of ninety GRN376mod clones; ganciclovir at a concentration of 30 μg
From the text: To facilitate creation of stable cell lines genetically altered with the hTERT promoter/thymidine kinase construct, plasmid pGRN376 (Example X) was modified to delete most of the adenovirus sequence. The plasmid was digested with Stul and Not I, followed by blunting and re-ligation. The remaining vector contained the hTERT promoter/thymidine kinase construct, preceded by the transcription blocking sequence to prevent promotion of tk gene expression by promoter sequences upstream from the integration site in the genome. The modified vector was designated pGRN376mod.
Cultures of the H9 hES cell line were split 1:4 using PBS containing 0.5 mM EDTA, as described earlier, and plated in feeder-free culture in 6-well plates. Twenty-four hrs after plating, cells were cotransfected with 2 μg GRN376mod plus 0.5 μg of a plasmid encoding neomycin pho, using FuGENETM-6 as described above. Medium containing 200 μg/mL geneticin was added 48 h after transfection to select out transfected cells. After 7-10 days in geneticin-containing medium, 103 individual colonies were picked from the wells and individually plated in 24-well plates, which were then expanded by culturing for ˜7 days. Ninety individual clones were screened for sensitivity to the pro-drug ganciclovir at a concentration of 30 μg. […]

H1 hES cells = assay: Stable transfection of feeder-free hES cells with geneticin selection; assay type: cell-based, human; conditions: 200 μg/mL in mEF-conditioned medium
Procedure: To investigate whether the feeder-free hES cells undergo stable genetic modification, H1 hES cells maintained on Matrigel® were cotransfected with a mixture of 7.5 μg plasmid carrying β-galactosidase driven by the EF1a promoter, and 2.5 μg of plasmid carrying the PGK promoter driving the neophosphotransferase gene. The cells were transfected 48 h after plating them on Matrigel® in mEF-conditioned medium. 10 μg of plasmid plus 15 μl of FuGENE™ were incubated with the cells in 1 mnL for 4 h before adding 2.5 mL of mEF-conditioned medium. After 48 h, medium was exchanged for mEF-conditioned medium supplemented with 200 μg/mL geneticin. Cultures were maintained in this geneticin-containing medium with daily medium exchange for over 21 days. All mock-transfected cultures (i.e., those that received FUGENE™ mixed with water rather than plasmid) died within 48-72 h. Drug resistant colonies arose in the wells transfected with both FUGENE™ and plasmid at a frequency of about 1 in to 10^5 originally transfected cells. The colonies were maintained in geneticin-containing mEF-conditioned medium and expanded.

hES cells = assay: Neuron formation from directly differentiated hES cells with neurotrophin growth factors (count of β-tubulin positive cells); assay type: cell-based, human; conditions: fixed after 7 days of differentiation
Procedure: The effect of several members of the neurotrophin growth factor family was examined. hES cells were differentiated by harvesting with collagenase, dissociating, and reseeding onto poly-ornithine coated cover slips. The cells were plated into DMEM/F12+N2+10% FBS overnight. The following day, the serum was removed from the medium and replaced with 10 ng/mL human bFGF and the growth factor being tested. After 24 hours, bFGF was removed from the medium. These cultures were fed every other day. They were fixed after 7 days of differentiation and immunostained for analysis. The number of neurons was evaluated by counting cells positive for β-tubulin. Cultures maintained in the presence of 10 ng/mL brain derived neurotrophic factor (BDNF) formed approximately 3-fold more neurons than the control cultures. Cultures maintained in neurotrophin-3 (1 ng/mL) formed approximately 2-fold more neurons than control cultures.

C[S+](C)[O-] [dimethyl sulfoxide]
expression of hTERT (hTERT): markedly decreased

Nc1nc(O)c2ncn(COC(CO)CO)c2n1 [ganciclovir]
effect of ganciclovir treatment on tk+ tumor lines [1]: selective destruction of all tumor lines tested | toxicity induced by GCV alone, H7 compared with H1 [2]: less toxicity | effect of ganciclovir treatment on normal cells (normal BJ cells): no effect | optimal GCV concentration [3]: ~20 µM | time in which essentially all undifferentiated cells died (H9 hES cell line clones): 1 to 3 days

CN[C@@H]1[C@@H](O)[C@@H](O[C@@H]2[C@@H](O)[C@H](O[C@H]3O[C@H]([C@@H](C)O)[C@@H](O)[C@H](O)[C@H]3N)[C@@H](N)C[C@H]2N)OC[C@]1(C)O [geneticin]
time in which all mock-transfected cultures died (H1 hES cells): 48 to 72 h

B1: neurotrophin-3 (protein, UniProt P20783 139-257, looked up)
Neurotrophin-3: YAEHKSHRGEYSVCDSESLWVTDKSSAIDIRGHQVTVLGEIKTGNSPVKQYFYETRCKEARPVKNGCRGIDDKHWNSQCKTSQTYVRALTSENNKLVGWRWIRIDTSCVCALSRKIGRT
notes: neurotrophin growth factor
neurons formed relative to control cultures (cells positive for β-tubulin) (hES cells; 1 ng/mL): approximately 2 fold

B2: brain derived neurotrophic factor (protein, UniProt P23560 19-247, looked up)
Neurotrophic factor BDNF …: APMKEANIRGQGGLAYPGVRTHGTLESVNGPKAGSRGLTSLADTFEHVIEELLDEDQKVRPNEENNKDADLYTSRVMLSSQVPLEPPLLFLLEEYKNYLDAANMSMRVRRHSDPARRGELSVCDSISEWVTAADKKTAVDMSGGTVTVLEKVPVSKGQLKQYFYETKCNPMGYTKEGCRGIDKRHWNSQCRTTQSYVRALTMDSKKRIGWRFIRIDTSCVCTLTIKRGR
notes: neurotrophin growth factor
neurons formed relative to control cultures (cells positive for β-tubulin) (hES cells; 10 ng/mL): approximately 3 fold
